Publication PMC8528301 (PLoS ONE, 2021)
Several values for one entry are separate records, joined by “and”; a condition that tells them apart may be missing. Equal entries are not always repeated.

Experiments:
[1] = DEX single oral gavage plasma pharmacokinetics (NLME modeling); conditions: for DV (Dex oral gavage PK raw data): individual mice;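 for all read-outs here: plasma concentration-time data analysed by nonlinear mixed-effects modeling in Monolix with SAEM estimation, models built on apparent clearance, distribution volume and absorption rate constant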
Description: (§1) Blood was collected via saphenous/retro-orbital vein at time points: 0.25, 0.75, 0.5, 1, 1.5, 2, 4, 8, 16 hours after treatment. Three sets of mice were used for this experiment, where set 1 was sampled at 2,4,8 hr; set 2 at 0.25, 0.75, 1.5 hr; set 3 at 0.5, 1 and 16 hr. Samples were centrifuged at 10,000 rpm for 2 minutes, plasma was removed and stored at -80°C until further analysis.
(§2) Briefly, parameters and the Fisher Information Matrix (FIM) were estimated using the stochastic approximation expectation maximization (SAEM) algorithm, and the final log-likelihood estimated with importance sampling, all using the default Monolix initial settings, except that 1000 iterations were permitted for estimation of FIM using stochastic approximation. A variety of models were fit to the respective compound’s Ct data, parameterized using apparent clearances, volumes of distribution, and absorption rate constant as needed. […] A log-normal inter-individual and inter-occasion parameter distribution was assumed on selected supported parameters, with both on- and off-diagonal elements of parameter covariance matrices tested. Additive and/or proportional error models were tested and implemented as supported. Beal’s M3 method was used to fit any data that were below the LLOQ or above the upper limit of the assay range [20]. […] Additionally, Wald test P values were outputted for each covariate effect by the Monolix software.
(§3) Additionally, Wald test P values were outputted for each covariate effect by the Monolix software.

in vivo = conditions: female, C57BL/6, mouse, plasma, po, 2 mg/kg
Description: as §1, §2, §3

[2] = test system: BCR-ABL Arf-/- Luc+ ALL cells; assay: Survival study of mice with BCR-ABL Arf-/- leukemia on discontinuous DEX regimen; format: in vivo, mouse; conditions: for median survival time: BCR-ABL Arf-/- ALL, discontinuous DEX
Description: Murine BCR-ABL Arf^-/- Luc^+ ALL cells were created by Dr. Charles Sherr (St. Jude Children’s Research Hospital) and provided immediately prior to mouse injection by the laboratory of Dr. Mary Relling (St. Jude Children’s Research Hospital). The cells had been tested for mycoplasma and were authenticated by flow cytometry for cell surface markers, tested for their leukemia-inducing capabilities with serial dilutions of cell numbers (from 2 million down to 2,000 cells), and ensured that the cells with the luciferase constructs produced light when combined with luciferin. Only cells from early passage (P3-P15) were used for these experiments. The St Jude Children’s Research Hospital Institutional Biosafety Committee and IACUC approved the use of these cells for injection into mice. C57BL/6 VD3 sufficient (n = 24) and deficient (n = 22) male mice (8–18 wk of age) were anaesthetized using isoflurane and injected iv with 2,000 BCR-ABL Arf^-/- Luc^+ ALL cells on day zero. […] Xenogen IVIS-200 (Caliper Life Sciences, Hopkinton, MA) was used to acquire bioluminescent images 5 minutes post-intra peritoneal injection of 200 μL of 100 mg/kg D-Luciferin (Caliper Life Sciences, Hopkinton, MA). Mice were anaesthetized with isoflurane during this procedure. The bioluminescent signal (photons/s) from a fixed region of interest (ROI) is used to monitor the disease progression twice every week. Images acquired here were analyzed using Living Image 3.1 software (Caliper Life Sciences), where whole body luciferase flux measurements (photons/s) were quantified as disease burden. Animal Welfare: All efforts were taken to minimize suffering and distress in the survival studies. […] All other mice in the survival study were euthanized within hours of reaching the humane end point/end of study = moribund for any reason which was determined based on hind limb paralysis (very typically observed in mice with BCR-ABL ALL), scruffy coat, lethargy or an inability to obtain food or water (SJ IACUC protocol #100468–613). A portion of spleen and hind limb were fixed, paraffin embedded, cut, and slides stained with hematoxylin and eosin and evaluated by a St Jude Pathologist (Dr. Laura Janke) to confirm leukemia was the cause of death.

Compound: C[C@@H]1C[C@H]2[C@@H]3CCC4=CC(=O)C=C[C@]4(C)[C@@]3(F)[C@@H](O)C[C@]2(C)[C@@]1(O)C(=O)CO [DEX, dexamethasone]
- estimated Cgut (gut concentration) ([1]; single oral gavage): 200 µM
- higher CL/F in males vs females ([1]; single oral gavage 2 mg/kg DEX phosphate, regardless of VD3 status): ~ 25%
- lower AUC values in males vs females ([1]; single oral gavage 2 mg/kg dexamethasone phosphate, 14 weeks): approximately 25%
- apparent oral clearance (CL/F), male vs female ([1]; single oral gavage, regardless of VD3 status): 1.26 fold
- DV (Dex oral gavage PK raw data) ([1]; time 0.25, SEX:F, VD3_DEF:0): 907.64 and 982.88
- DV (Dex oral gavage PK raw data) ([1]; time 0.25, SEX:M, VD3_DEF:0): 359.52 and 381.14 and 918.28 and 295.91
- DV (Dex oral gavage PK raw data) ([1]; time 0.5, SEX:F, VD3_DEF:0): 300.45 and 875.91 and 827.78 and 1011.08 and 796.28
- DV (Dex oral gavage PK raw data) ([1]; time 0.5, SEX:M, VD3_DEF:0): 854.61 and 443.3 and 391.17 and 812.36 and 581.49
- DV (Dex oral gavage PK raw data) ([1]; time 0.75, SEX:F, VD3_DEF:0): 593 and 696.57 and 716.27
- DV (Dex oral gavage PK raw data) ([1]; time 0.75, SEX:M, VD3_DEF:0): 319 and 407.15 and 712.45 and 358.52
- DV (Dex oral gavage PK raw data) ([1]; time 1, SEX:F, VD3_DEF:0): 323.98 and 614.7 and 559.39 and 858.7 and 572.77
- DV (Dex oral gavage PK raw data) ([1]; time 1, SEX:M, VD3_DEF:0): 871.76 and 446.29 and 284.95 and 564.36 and 379.97
- DV (Dex oral gavage PK raw data) ([1]; time 1.5, SEX:F, VD3_DEF:0): 400.31 and 458.1 and 520.89
- DV (Dex oral gavage PK raw data) ([1]; time 1.5, SEX:M, VD3_DEF:0): 262.55 and 317.69 and 754.41 and 324.39
- DV (Dex oral gavage PK raw data) ([1]; time 2, SEX:F, VD3_DEF:0): 620.12 and 492.72 and 552.22 and 715.36
- DV (Dex oral gavage PK raw data) ([1]; time 2, SEX:M, VD3_DEF:0): 450.54 and 344.89 and 388.67 and 378.66 and 784.19
- DV (Dex oral gavage PK raw data) ([1]; time 2, SEX:M, VD3_DEF:1): 453.95 and 476.24
- DV (Dex oral gavage PK raw data) ([1]; time 4, SEX:F, VD3_DEF:0): 375.42 and 312.44 and 291.92 and 312.42 and 297.86
- DV (Dex oral gavage PK raw data) ([1]; time 4, SEX:M, VD3_DEF:0): 215.15 and 191.38 and 191.07 and 239.97 and 623.74
- DV (Dex oral gavage PK raw data) ([1]; time 4, SEX:M, VD3_DEF:1): 214.6 and 240.73 and 185.34
- DV (Dex oral gavage PK raw data) ([1]; time 8, SEX:F, VD3_DEF:0): 121.36 and 89.26 and 221.1 and 152.45 and 67.95
- DV (Dex oral gavage PK raw data) ([1]; time 8, SEX:M, VD3_DEF:0): 74.87 and 61.36 and 52.11 and 112.04 and 269.34
- DV (Dex oral gavage PK raw data) ([1]; time 8, SEX:M, VD3_DEF:1): 66.26 and 72.8
- DV (Dex oral gavage PK raw data) ([1]; time 16, SEX:F, VD3_DEF:0): 29.97 and 65.92 and 14.35 and 7.95 and 53.43
- DV (Dex oral gavage PK raw data) ([1]; time 16, SEX:M, VD3_DEF:0): 18.43 and 25.62 and 92.79 and 13.68 and 19.85
- concentration at 2 h (in vivo): 676 ng/mL
- median survival time ([2]; DEX-treated VD3 deficient male mice): 59 days
- median survival time ([2]; DEX-treated VD3 sufficient male mice): 36 days
- Survival proportions ([2]; VD3 Deficient, days survived 0): 100
- Survival proportions ([2]; VD3 Deficient, days survived 22): 90.5
- Survival proportions ([2]; VD3 Deficient, days survived 24): 85.7
- Survival proportions ([2]; VD3 Deficient, days survived 32): 81
- Survival proportions ([2]; VD3 Deficient, days survived 36): 76.2
- Survival proportions ([2]; VD3 Deficient, days survived 38): 71.4
- Survival proportions ([2]; VD3 Deficient, days survived 48): 61.9
- Survival proportions ([2]; VD3 Deficient, days survived 55): 57.1
- Survival proportions ([2]; VD3 Deficient, days survived 59): 47.6
- Survival proportions ([2]; VD3 Sufficient, days survived 0): 100
- Survival proportions ([2]; VD3 Sufficient, days survived 15): 90.9
- Survival proportions ([2]; VD3 Sufficient, days survived 22): 86.4
- Survival proportions ([2]; VD3 Sufficient, days survived 23): 81.8
- Survival proportions ([2]; VD3 Sufficient, days survived 25): 72.7
- Survival proportions ([2]; VD3 Sufficient, days survived 32): 63.6
- Survival proportions ([2]; VD3 Sufficient, days survived 34): 59.1
- Survival proportions ([2]; VD3 Sufficient, days survived 35): 54.5
- Survival proportions ([2]; VD3 Sufficient, days survived 37): 45.5
- Survival proportions ([2]; VD3 Sufficient, days survived 38): 40.9
- Survival proportions ([2]; VD3 Sufficient, days survived 48): 27.3
- Survival proportions ([2]; VD3 Sufficient, days survived 55): 22.7
